{"source": "ChEMBL document CHEMBL1201862", "about": "“PubChem BioAssay data set” (2004)", "key": {"[1]": {"experiment": "Luminescence-based counterscreen assay for KLF5 inhibitors: dose response cell-based high throughput screening assay to identify cytotoxic compounds using the IEC-6 intestinal epithelial cell line. [Related pubchem assays: 1700 (Primary screen.), 1834 (Confirmation screen.), 1858 (Summary AID.), 1905 (Counterscreen.)]", "format": "functional"}, "[2]": {"experiment": "HEK-293T viability loss after treatment – luminescence, T-cell screen hits, cytotoxicity control for TCR NF-kB inhibitor project, dose response (AID 489026);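 also: cells exposed to compound about 14 hours before the viability readout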", "format": "functional, cell-based"}, "[3]": {"experiment": "luciferase reporter signal suppression in cells – H4 neuroglioma cells, luminescence, dose response (AID 1990)", "format": "functional, cell-based"}, "[4]": {"experiment": "Luminescence Cell-Based Dose Response HTS to Identify Inhibitors of 5'UTR Stem-Loop Driven Prion Protein mRNA Translation in H4 Neuroglioblastoma Cells. [Related pubchem assays: 1827 (Project Summary), 1813 (Primary HTS)]", "format": "functional"}, "INS1": {"test_system": "INS1", "experiment": "INS-1E survival protection against cytokine death – cell-based, luminescence, retest, dose response (AID 449756);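 also: cell death triggered by IL-1 beta plus TNF-alpha plus IFN-gamma mixture; protective hits raise ATP signal compared with cytokine alone wells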", "format": "functional", "conditions": "Rattus norvegicus"}, "[5]": {"experiment": "alpha-synuclein stem-loop luciferase translation blockers – H4 neuroglioma cells, luminescence, confirmation (AID 1988)", "format": "functional, cell-based"}, "[6]": {"experiment": "NIH3T3 cell viability loss – ATP luminescence, mouse fibroblasts, counter-screen, dose response (AID 2010);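 also: cells exposed to compound for about 90 hours before reading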", "format": "functional, cell-based"}, "[7]": {"experiment": "Trypanosoma cruzi growth suppression in host cells – NIH3T3 host cells, beta-gal luminescence, confirmation (AID 2044);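 also: intracellular parasites grown in NIH/3T3 mouse fibroblasts as host cells; luminescent beta-galactosidase reporter signal from transgenic T. cruzi replicating inside host cells; inhibitors lower the luminescence signal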", "format": "functional, cell-based"}, "[8]": {"experiment": "A Cell Based Secondary Assay To Explore Cytotoxicity of Compounds that Sensitize Mycobacterium Tuberculosis to Beta-Lactam Antibiotics.", "format": "functional"}, "[9]": {"experiment": "A cytotoxicity screen of small molecule inhibitors of the PhoP region in Salmonella typhi identified in the primary screen. [Related pubchem assays: 1850, 1864, 1985 ]", "format": "functional"}, "Hexokinase HKDC1": {"biological_target": "T1, Hexokinase HKDC1 (Homo sapiens, UniProt Q2TB90)", "T1 sequence (Q2TB90 whole entry)": "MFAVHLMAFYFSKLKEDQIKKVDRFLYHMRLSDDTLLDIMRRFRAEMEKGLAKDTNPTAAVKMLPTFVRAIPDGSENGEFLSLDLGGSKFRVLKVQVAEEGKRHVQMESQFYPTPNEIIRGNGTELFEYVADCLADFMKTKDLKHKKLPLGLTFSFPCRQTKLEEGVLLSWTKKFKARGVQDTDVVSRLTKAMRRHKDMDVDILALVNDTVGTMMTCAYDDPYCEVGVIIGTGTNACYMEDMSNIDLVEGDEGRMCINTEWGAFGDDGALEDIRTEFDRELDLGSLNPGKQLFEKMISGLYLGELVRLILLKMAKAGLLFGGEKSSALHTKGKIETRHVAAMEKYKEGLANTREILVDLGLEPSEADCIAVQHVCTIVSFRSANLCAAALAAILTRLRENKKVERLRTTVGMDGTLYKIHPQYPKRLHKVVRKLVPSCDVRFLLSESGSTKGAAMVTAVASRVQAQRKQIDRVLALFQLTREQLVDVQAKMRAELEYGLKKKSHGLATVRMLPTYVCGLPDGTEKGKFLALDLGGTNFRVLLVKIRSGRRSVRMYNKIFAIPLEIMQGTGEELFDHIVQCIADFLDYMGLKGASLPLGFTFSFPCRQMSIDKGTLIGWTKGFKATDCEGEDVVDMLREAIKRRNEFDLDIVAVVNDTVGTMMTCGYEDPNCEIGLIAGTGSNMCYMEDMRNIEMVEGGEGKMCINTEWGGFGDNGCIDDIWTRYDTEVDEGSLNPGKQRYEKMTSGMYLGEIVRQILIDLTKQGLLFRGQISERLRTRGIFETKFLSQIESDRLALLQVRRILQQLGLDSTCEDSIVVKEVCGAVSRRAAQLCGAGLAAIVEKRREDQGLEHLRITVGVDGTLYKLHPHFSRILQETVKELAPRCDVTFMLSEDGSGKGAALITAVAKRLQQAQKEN", "experiment": "inhibition of HKDC1 glucose phosphorylation – biochemical, W721R variant, dose response (AID 504729)", "format": "functional"}, "[10]": {"test_system": "Streptococcus sp. 'group A'", "experiment": "Streptococcus pyogenes SK(-)GAS viability under kanamycin – luminescence, BacTiterGlo, confirmation, counter-screen for streptokinase expression inhibitor project, dose response (AID 1900)", "format": "functional, organism-based"}, "Streptococcus": {"test_system": "Streptococcus", "experiment": "GAS UMAA2166 growth inhibition – luminescence, BacTiterGlo, counter-screen for streptokinase expression inhibitor project, dose response (AID 1915);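 also: potency for reduction of bacterial viability or growth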", "format": "functional, organism-based"}, "[11]": {"biological_target": "Peroxisome proliferator-activated receptor gamma/Nuclear receptor coactivator 1 (Homo sapiens, UniProt P37231)", "sequence (P37231 whole entry)": "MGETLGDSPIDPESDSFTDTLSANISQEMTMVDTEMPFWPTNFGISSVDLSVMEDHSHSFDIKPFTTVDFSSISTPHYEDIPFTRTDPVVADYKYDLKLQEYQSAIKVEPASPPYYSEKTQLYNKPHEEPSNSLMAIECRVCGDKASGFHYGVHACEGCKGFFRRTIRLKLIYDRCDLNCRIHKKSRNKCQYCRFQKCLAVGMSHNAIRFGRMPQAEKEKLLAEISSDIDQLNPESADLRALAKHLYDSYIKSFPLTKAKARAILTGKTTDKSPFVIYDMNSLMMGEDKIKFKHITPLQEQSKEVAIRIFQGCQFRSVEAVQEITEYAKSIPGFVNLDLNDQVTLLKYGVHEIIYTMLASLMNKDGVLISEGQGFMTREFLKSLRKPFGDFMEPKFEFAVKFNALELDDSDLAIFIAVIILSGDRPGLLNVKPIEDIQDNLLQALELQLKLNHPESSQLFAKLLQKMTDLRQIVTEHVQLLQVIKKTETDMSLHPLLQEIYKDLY", "sequence (Q15788 whole entry, further chain)": "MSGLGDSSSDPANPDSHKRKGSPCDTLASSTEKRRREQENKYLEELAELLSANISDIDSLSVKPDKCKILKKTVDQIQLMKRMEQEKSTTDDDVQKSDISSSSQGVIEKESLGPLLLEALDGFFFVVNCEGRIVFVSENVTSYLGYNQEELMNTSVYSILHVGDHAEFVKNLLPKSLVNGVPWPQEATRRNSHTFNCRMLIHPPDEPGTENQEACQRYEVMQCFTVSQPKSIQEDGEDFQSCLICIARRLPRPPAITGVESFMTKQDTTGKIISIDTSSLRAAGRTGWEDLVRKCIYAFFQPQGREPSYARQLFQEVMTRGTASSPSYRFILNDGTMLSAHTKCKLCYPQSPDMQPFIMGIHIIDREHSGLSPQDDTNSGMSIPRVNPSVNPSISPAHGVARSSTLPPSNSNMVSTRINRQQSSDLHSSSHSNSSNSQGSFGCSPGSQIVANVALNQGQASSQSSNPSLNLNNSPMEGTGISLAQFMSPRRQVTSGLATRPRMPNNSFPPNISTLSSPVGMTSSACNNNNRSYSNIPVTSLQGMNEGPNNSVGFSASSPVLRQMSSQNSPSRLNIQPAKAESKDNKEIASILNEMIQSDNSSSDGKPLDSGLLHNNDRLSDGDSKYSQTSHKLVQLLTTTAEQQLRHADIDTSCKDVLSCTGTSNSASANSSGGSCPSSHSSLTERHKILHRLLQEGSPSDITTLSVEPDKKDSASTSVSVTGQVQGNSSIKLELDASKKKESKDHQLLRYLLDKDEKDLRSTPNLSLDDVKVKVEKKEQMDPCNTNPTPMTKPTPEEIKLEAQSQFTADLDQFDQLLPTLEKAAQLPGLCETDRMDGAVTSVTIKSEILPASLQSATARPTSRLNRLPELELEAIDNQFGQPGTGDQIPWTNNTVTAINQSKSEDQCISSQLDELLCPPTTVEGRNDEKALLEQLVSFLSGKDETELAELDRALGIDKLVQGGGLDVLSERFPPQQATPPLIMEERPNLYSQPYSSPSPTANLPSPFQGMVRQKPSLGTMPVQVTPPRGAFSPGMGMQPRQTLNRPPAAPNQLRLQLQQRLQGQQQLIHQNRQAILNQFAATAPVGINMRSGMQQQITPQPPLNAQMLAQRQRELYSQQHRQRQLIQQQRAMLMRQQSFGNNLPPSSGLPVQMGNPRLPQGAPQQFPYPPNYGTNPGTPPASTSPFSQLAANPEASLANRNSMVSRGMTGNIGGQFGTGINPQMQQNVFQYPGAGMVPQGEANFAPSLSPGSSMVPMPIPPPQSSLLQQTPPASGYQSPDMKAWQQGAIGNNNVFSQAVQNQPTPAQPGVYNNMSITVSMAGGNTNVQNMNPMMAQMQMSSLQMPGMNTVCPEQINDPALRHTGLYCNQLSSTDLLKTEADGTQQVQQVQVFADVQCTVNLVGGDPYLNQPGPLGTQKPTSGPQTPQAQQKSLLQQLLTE", "format": "functional"}, "[12]": {"biological_target": "Peroxisome proliferator-activated receptor gamma/Nuclear receptor coactivator 3 (Homo sapiens, UniProt P37231)", "format": "functional"}, "[13]": {"biological_target": "Peroxisome proliferator-activated receptor gamma/Nuclear receptor coactivator 2 (Homo sapiens, UniProt P37231)", "sequence (P37231 whole entry)": "as the sequence (P37231 whole entry) above", "sequence (Q15596 whole entry, further chain)": "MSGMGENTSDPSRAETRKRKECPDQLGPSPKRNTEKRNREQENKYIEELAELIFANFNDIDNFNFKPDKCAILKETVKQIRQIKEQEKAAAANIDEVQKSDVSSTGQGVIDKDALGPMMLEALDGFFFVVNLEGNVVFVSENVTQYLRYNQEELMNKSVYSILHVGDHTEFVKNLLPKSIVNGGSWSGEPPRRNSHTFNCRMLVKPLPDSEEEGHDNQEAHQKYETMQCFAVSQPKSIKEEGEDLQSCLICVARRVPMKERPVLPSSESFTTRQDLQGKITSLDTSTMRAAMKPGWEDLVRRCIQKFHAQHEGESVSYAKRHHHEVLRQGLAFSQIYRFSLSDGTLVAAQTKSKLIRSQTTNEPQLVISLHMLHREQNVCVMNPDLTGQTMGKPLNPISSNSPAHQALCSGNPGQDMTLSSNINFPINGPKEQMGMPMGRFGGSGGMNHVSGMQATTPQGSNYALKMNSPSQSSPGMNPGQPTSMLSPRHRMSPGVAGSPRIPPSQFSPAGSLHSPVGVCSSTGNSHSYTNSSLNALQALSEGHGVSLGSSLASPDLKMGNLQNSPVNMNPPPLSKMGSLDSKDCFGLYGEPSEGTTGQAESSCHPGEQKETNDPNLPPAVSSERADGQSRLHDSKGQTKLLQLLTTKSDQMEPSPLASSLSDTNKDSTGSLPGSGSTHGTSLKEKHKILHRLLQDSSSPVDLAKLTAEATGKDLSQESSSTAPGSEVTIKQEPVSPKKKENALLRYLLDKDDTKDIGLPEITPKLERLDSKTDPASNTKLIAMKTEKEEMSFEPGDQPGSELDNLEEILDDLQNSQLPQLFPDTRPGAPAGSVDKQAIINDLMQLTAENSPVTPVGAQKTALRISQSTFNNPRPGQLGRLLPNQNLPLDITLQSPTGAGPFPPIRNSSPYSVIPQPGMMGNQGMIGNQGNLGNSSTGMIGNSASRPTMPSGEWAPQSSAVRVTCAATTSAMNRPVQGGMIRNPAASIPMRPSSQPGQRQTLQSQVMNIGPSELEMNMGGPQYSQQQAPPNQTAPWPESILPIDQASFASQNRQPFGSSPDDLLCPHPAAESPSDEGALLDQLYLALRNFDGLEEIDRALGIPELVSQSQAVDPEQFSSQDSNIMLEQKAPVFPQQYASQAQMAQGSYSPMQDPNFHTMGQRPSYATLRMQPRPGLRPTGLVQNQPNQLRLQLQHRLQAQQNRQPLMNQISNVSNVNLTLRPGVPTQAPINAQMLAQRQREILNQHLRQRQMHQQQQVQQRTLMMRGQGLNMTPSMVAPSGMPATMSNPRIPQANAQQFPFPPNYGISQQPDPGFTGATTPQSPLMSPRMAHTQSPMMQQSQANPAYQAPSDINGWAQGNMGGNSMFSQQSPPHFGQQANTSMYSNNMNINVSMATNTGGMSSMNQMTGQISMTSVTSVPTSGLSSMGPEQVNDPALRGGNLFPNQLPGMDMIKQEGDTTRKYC", "format": "functional"}, "Cytochrome P450 2C9": {"biological_target": "Cytochrome P450 2C9 (Homo sapiens, UniProt P11712)", "sequence (P11712 whole entry)": "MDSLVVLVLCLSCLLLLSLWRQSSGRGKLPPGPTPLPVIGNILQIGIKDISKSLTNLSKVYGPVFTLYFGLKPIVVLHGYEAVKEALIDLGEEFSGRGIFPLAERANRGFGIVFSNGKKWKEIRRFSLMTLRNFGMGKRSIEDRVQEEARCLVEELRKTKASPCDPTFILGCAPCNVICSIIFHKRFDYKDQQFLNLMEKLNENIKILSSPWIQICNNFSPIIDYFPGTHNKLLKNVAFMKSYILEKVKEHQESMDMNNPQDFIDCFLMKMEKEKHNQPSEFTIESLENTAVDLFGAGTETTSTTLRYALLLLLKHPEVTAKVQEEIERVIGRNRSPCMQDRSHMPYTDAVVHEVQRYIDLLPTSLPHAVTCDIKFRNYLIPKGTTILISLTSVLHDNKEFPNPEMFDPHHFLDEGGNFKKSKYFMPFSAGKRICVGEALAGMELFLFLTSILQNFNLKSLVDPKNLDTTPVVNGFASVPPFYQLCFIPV", "conditions": "Potency"}}, "note": "The source made the active and inactive calls."}
{"smiles": "CCOC(=O)c1sc(NC(=O)c2cc3ccccc3o2)nc1C", "values": [{"measurement": "IC50", "setting": "[1]", "result": "> 39.8 µM (not active)"}]}
{"smiles": "C#Cc1ccc([C@@H]2C=C(C(=O)N3CCN(Cc4ccccc4)CC3)O[C@H](OCCCCO)C2)cc1", "values": [{"measurement": "IC50", "setting": "[2]", "result": "> 80 µM (inactive)"}, {"measurement": "EC50", "setting": "[3]", "result": "9.88 µM (active)"}, {"measurement": "EC50", "setting": "[4]", "result": "9.17 µM (active)"}, {"measurement": "AC50", "setting": "INS1", "result": "1.01 µM (active)"}, {"measurement": "IC50", "setting": "[1]", "result": "> 39.8 µM (not active)"}, {"measurement": "EC50", "setting": "[5]", "result": "7.64 µM (active)"}]}
{"smiles": "CCCCOc1ccc(/C=N/Nc2cc(N3CCOCC3)nc(C)n2)cc1", "values": [{"measurement": "EC50", "setting": "[6]", "result": "> 60 µM (not active)"}, {"measurement": "EC50", "setting": "[7]", "result": "2.46 µM (active)"}, {"measurement": "CC50", "setting": "[8]", "result": "> 40 µM (active)"}]}
{"smiles": "O=C(/C=C/c1ccc(Cl)cc1Cl)NCc1ccncc1", "values": [{"measurement": "EC50", "setting": "[9]", "result": "> 50 µM (active)"}]}
{"smiles": "Cn1c2ccccc2c(=O)c2c(=O)n(-c3ccc(F)cc3)c(-c3cccs3)nc21", "values": [{"measurement": "IC50", "setting": "Hexokinase HKDC1", "result": "2.72 µM (active)"}, {"measurement": "EC50", "setting": "[10]", "result": "9.47 µM (active)"}, {"measurement": "EC50", "setting": "Streptococcus", "result": "9.21 µM (active)"}]}
{"smiles": "CC(C)(C)c1nnc(NC(=O)CN2C(=O)C3C4C=CC(C4)C3C2=O)s1", "note": "(stereo not given)", "values": [{"measurement": "EC50", "setting": "[11]", "result": "> 79.4 µM (not active)"}, {"measurement": "EC50", "setting": "[12]", "result": "> 79.4 µM (not active)"}, {"measurement": "EC50", "setting": "[13]", "result": "> 79.4 µM (not active)"}]}
{"smiles": "COc1ccc(OC)c(-c2cc(C(=O)Nc3c(C)nn(Cc4ccccc4C)c3C)no2)c1", "values": [{"measurement": "CC50", "setting": "[8]", "result": "34.7 µM (active)"}]}
{"smiles": "CC(C)C[C@@H](CC(=O)N[C@@H](CCCN)CC(=O)N[C@@H]1CCNC[C@H]1C(=O)N[C@H](CC(=O)N[C@@H](CCC(=O)O)CC(=O)O)CC(C)C)NC(=O)[C@@H]1CCCC[C@H]1N", "values": [{"measurement": "AC50", "setting": "Cytochrome P450 2C9", "result": "12.6 µM (inconclusive)"}]}
{"smiles": "C/C(N)=C(/C#N)C(=O)COC(=O)c1cc2c(s1)CCCC2", "values": [{"measurement": "IC50", "setting": "cells", "result": "21.3 µM (active)"}]}
